Experimental data as given in patent publication US9914712B2, “Antibacterial thiazolecarboxylic acids” (priority 2013, dated 2018).

How the values were obtained:
[1] = biological target: T1, IMP-1 (Serratia marcescens, UniProt P52699); test: In vitro MBL inhibition assay, imipenem hydrolysis (IMP-1); format: biochemical; settings: Ki IMP-1, imipenem substrate, Ki from IC50 by Cheng-Prusoff, Km 25 μM
T1 construct: made in house
Protocol: The MBL enzyme IMP-1 is produced and purified as disclosed in Laraki et al, Antimicrobial Agents & Chemotherapy, (1999), 43(4), 902-906.
(§1) Reaction buffers were prepared in a UV-transparent 96-well microplate, which buffer contains 10 mM HEPES pH 7.5, 50 μM ZnSO4, 20 μg/mL BSA. An amount of 75 ng of protein was added to each well.
(§2) Spectrophometric assays are performed to determine NDM-1/VIM-2/IMP-1 carbapenemase activity using purified proteins (50 ng for NDM-1/VIM-2, 25 ng IMP-1) from NDM-1/VIM-2/IMP-1 expressing bacteria using […] of imipenem as substrate in 10 mM HEPES pH 7.5, 50 μM ZnSO4. MBL hydrolysis is measured at 299 nm for 10 minutes at 30° C. as the absorbance changes due to the opening of beta-lactam ring of the antibiotic.
(§3) The Ki values obtained for selected example compounds are shown in Table 3, where they are compared with the values for pyridine-2-carboxylic acid.

[2] = tested on: NTBC039; test: MIC of meropenem in presence of the inhibitor, broth microdilution; format: cell-based; settings: compound at 100 μM, 37° C., 18-20 h
[3] = biological target: T2, VIM-2 (Escherichia coli, UniProt Q5U7L7); test: In vitro MBL inhibition assay, imipenem hydrolysis (VIM-2); format: biochemical; settings: Ki VIM-2, imipenem substrate, Ki from IC50 by Cheng-Prusoff, Km 9 μM
T2 construct: made in house
Protocol: The MBL enzyme VIM-2 is produced and purified as disclosed in Borgianni et al, Antimicrobial Agents & Chemotherapy, (2010), 54(8), 3197-3204.
as §1, §2, §3

[4] = tested on: NTBC020 Strain: Escherichia coli producing NDM-1+TEM-1+CTX-M-15; test: MIC of meropenem in presence of the inhibitor, broth microdilution; format: cell-based; settings: compound at 100 μM, 37° C., 18-20 h
Protocol: (§4) The minimal inhibitory concentration (MIC) of meropenem in presence of the inhibitor is routinely assessed against 3 representative clinical strains: • NTBC020 Strain: Escherichia coli producing NDM-1+TEM-1+CTX-M-15, (isolated in Australia in 2009); • NTBC023 strain: Klebsiella pneumoniae producing VIM-1+SHV-5, (isolated in France in 2002); • NTBC062 strain: Klebsiella pneumoniae producing IMP-1+TEM-1, (isolated in France in 2012);
(§5) The assay was performed according to the standard broth microdilution method described by the Clinical and Laboratory Standards Institute (CLSI-M7-A7—Methods for dilution antimicrobial susceptibility tests for bacteria that grow aerobically; Approved standard; CLSI, Wayne, Pa., USA. 2006). This method involves the use of small volumes of broth dispensed in sterile, plastic 96-wells microdilution plates. The compounds were tested at a concentration of 100 μM and controls included the susceptibility tests for the three selected strains without the compounds and for the two reference strains E. coli ATCC 25922 and Pseudomonas aeruginosa ATCC 27853 as Quality Controls.
(§6) From a stock solution at 20 mM in DMSO, compounds were prepared by diluting 0.04 mL of the compound solution in 0.04 mL of Mueller-Hinton (MH) broth (2-fold dilution). Then, 0.001 mL of the compound dilution was distributed in the 96-wells microdilution plates to give a final concentration of 100 μM for a final volume of 0.1 mL by well.
(§7) From a meropenem stock solution at 10 mg/ml in water, meropenem 2-fold serial dilutions were prepared in MH broth at twice the desired final concentrations, e.g from 512 to 0.0037 μg/ml. The 96-wells microdilution plates were then filled with 0.05 mL of the meropenem dilutions. For each susceptibility test, two wells were left free of antibiotic and filled with 0.05 mL of sterile MH broth to serve as growth controls.
(§8) The bacterial inoculum was prepared by direct colony suspension from a 24 h-agar plate in saline solution (NaCl 9 g/L). The suspension was adjusted to a 0.5 MacFarland turbidity standard (1-2×10^8 CFU/mL) and then diluted 1:100 in MH broth. 0.05 mL of the bacterial dilution was then inoculated to each well giving a final volume of 0.1 mL and a final bacterial concentration of approximately 5×10^5 CFU/mL.
(§9) Microdilution plates were incubated at 37° C. in an ambient air incubator for 18-20 h.

[5] = tested on: NTBC023 strain: Klebsiella pneumoniae producing VIM-1+SHV-5; test: as above; format: cell-based; settings: compound at 100 μM, 37° C., 18-20 h
Protocol: as §4, §5, §6, §7, §8, §9

[6] = biological target: T3, NDM-1 (Klebsiella pneumoniae, UniProt C7C422); test: In vitro MBL inhibition assay, imipenem hydrolysis (NDM-1); format: biochemical; settings: Ki NDM-1, imipenem substrate, Ki from IC50 by Cheng-Prusoff, Km 70 μM
T3 construct: made in house
T3 sequence (C7C422 29-270 limits assumed): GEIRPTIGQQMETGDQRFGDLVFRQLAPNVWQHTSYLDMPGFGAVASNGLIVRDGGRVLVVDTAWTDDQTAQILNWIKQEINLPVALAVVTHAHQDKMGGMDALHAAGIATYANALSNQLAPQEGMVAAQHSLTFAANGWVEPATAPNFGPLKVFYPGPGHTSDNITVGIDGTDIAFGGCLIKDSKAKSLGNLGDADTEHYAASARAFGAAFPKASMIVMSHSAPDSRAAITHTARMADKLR
Protocol: NDM-1 is produced and purified as disclosed in Yong et al, Antimicrobial Agents & Chemotherapy, (2009) 53(12), 5046-54.
as §1, §2, §3

T1 sequence (P52699 19-246, species assumed): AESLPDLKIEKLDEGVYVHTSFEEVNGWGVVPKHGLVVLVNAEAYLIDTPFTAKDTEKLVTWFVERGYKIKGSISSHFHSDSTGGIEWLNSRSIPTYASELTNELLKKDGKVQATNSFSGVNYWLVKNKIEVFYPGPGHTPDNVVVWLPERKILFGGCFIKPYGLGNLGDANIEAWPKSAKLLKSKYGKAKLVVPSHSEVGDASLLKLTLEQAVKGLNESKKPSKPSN

| Compound | Ki [1] [nM] | MIC of meropenem, strain NTBC039 [2] [µg/mL] | Ki [3] [nM] | MIC of meropenem, strain NTBC020 [4] [µg/mL] | MIC of meropenem, strain NTBC023 [5] [µg/mL] | Ki [6] [nM] |
| --- | --- | --- | --- | --- | --- | --- |
| O=C(O)c1ncsc1NS(=O)(=O)c1ccccc1 [Compound 1, 5-benzenesulfonamido-1,3-thiazole-4-carboxylic acid] | 80 | 16 | 320 | 32 | 64 | 1200 |
| O=C(O)c1ncsc1NS(=O)(=O)c1csc2ccccc12 [Compound 41, 5-(1-benzothiophene-3-sulfonamido)-1,3-thiazole-4-carboxylic acid] | 80 | 4 | 220 | 64 | 16 | 670 |
| O=C(O)c1ncsc1NS(=O)(=O)CC1CCOCC1 [Compound 111, 5-[(oxan-4-ylmethyl)sulfonamido]-1,3-thiazole-4-carboxylic acid] | 900 | 0.25 | 220 | 4 | 8 | 2800 |
| O=C(O)c1ncsc1NS(=O)(=O)c1ccc(N2CCCCC2)nc1 [Compound 138, 5-[6-(piperidin-1-yl)pyridin-3-ylsulfonamido]-1,3-thiazole-4-carboxylic acid] | 130 | 1 | 10 | 32 | 16 | 430 |
| O=C(O)c1ncsc1NS(=O)(=O)c1ccc(OC2CCNC2)cc1 (centres unmarked) [Compound 163, 5-[4-(pyrrolidin-3-yloxy)phenylsulfonamido]-1,3-thiazole-4-carboxylic acid] | 1000 | 16 | 280 | 16 | 32 | 370 |
| O=C(O)c1ncsc1NS(=O)(=O)Cc1cccnc1 [Compound 170, 5-(3-pyridylmethylsulfonylamino)thiazole-4-carboxylic acid] |  | 0.25 | 460 | 16 | 1 | 4200 |
| N[C@@H](C(=O)N1CCC(c2ccc(S(=O)(=O)Nc3scnc3C(=O)O)cc2)CC1)c1ccccc1 [Compound 172, S-5-[[4-[1-(2-amino-2-phenyl-acetyl)-4-piperidyl]phenyl]sulfonylamino]thiazole-4-carboxylic acid] | 760 | 8 | 50 | 64 | 8 | 220 |
| N[C@@H](C(=O)N1CCC(c2ccc(S(=O)(=O)Nc3scnc3C(=O)O)cc2)CC1)c1ccccc1 [Compound 173, R-5-[[4-[1-(2-amino-2-phenyl-acetyl)-4-piperidyl]phenyl]sulfonylamino]thiazole-4-carboxylic acid] | 330 | 8 | 40 | 128 | 8 | 180 |
